The record followed here is paper PMC3916391 (PLoS Pathogens, 2014).

Read-outs that look alike come from different tables or passages of the source. A value given as a limit tells only on which side of the number the result lay.

This assay addresses T1, pyocin L1 (Pseudomonas aeruginosa, UniProt T2LG16).
T1 construct: full length, 256 residues, 28413 Da; expressed in E. coli BL21(DE3)pLysS (pETPyoL1); monomer
T1 sequence (T2LG16 1-256): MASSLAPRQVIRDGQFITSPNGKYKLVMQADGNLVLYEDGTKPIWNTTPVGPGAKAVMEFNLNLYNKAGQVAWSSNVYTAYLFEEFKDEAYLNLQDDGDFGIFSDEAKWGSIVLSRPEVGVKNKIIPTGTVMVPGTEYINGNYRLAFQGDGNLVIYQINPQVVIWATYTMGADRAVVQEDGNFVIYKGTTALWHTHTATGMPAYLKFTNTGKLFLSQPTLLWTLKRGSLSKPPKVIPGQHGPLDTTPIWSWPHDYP
It counts as binding.

As for `OC[C@H]1OC(O)[C@@H](O)[C@@H](O)[C@@H]1O` (stereo partly drawn) [D-mannose], the Kd (read-out: Kd) is above 50 mM.
As for `C[C@H]1OC(O)[C@@H](O)[C@@H](O)[C@@H]1O` (stereo partly drawn) [D-rhamnose], the Kd (read-out: apparent Kd) lay within 5 to 10 mM.
